Assay results from patent US20250388550A1, “SALTS OF AN ANTIOXIDANT AND CRYSTALLINE FORMS THEREOF” (Mironova Labs, Inc., priority 2022, published 2025).

Columns and labels:
[1] = Observation of isolated solid on removal from nitrogen stream; type: physicochemical; details: upon removal from the nitrogen stream
Procedure: L-Ergothioneine calcium chloride Material A was obtained by heating a slurry of 173.9 mg of L-Ergothioneine Form A/B in 1 mL of water to 65° C. A faint turbid solution was afforded with the addition of 110.5 mg of calcium chloride to the slurry. The sample was refrigerated for 3 days and became clear. The clear solution was evaporated to dryness under nitrogen.

[2] = Excerpt: It cannot be predicted in advance whether a compound exists in one or more solid forms, or whether the properties of the solid form are advantageous for manufacturing and pharmaceutical formulation.
[3] = Hygroscopicity inferred from TGA weight loss; type: physicochemical; details: weight loss likely volatilization of moisture
Procedure: Thermogravimetric (TG) analyses were performed using a Mettler-Toledo TGA/DSC3+ analyzer. Temperature and enthalpy adjustments were performed using indium, tin, and zinc, and then verified with indium. The balance was verified with calcium oxalate. The sample was placed in an aluminum pan. The pan was hermetically sealed, the lid pierced, and the pan was then inserted into the TG furnace. A weighed aluminum pan configured as the sample pan was placed on the reference platform. The furnace was heated under nitrogen. Samples were analyzed from 25° C. to 350° C. at 10° C./min. Thermogravimetric analyses typically experience a period of equilibration at the start of each analysis, indicated by red parentheses on the thermograms. The starting temperature for relevant weight loss calculations is selected at a point beyond this region (typically above 35° C.) for accuracy. DSC analysis on this instrument is less sensitive than on the DSC3+ differential scanning calorimeter. Therefore, in certain embodiments, samples with sufficient solids were analyzed by both instruments and the TGA thermogram from Mettler-Toledo TGA/DSC3+ analyzer is reported below.
The final endotherm with an onset of 234° C. is likely from concomitant melt and decomposition.
Thermal decomposition (FIG. 20), which caused the material to expand out of the pan, was evident above this temperature.

[4] = Slurry interconversion experiments of Forms A and C; type: physicochemical; details: for Relative thermodynamic stability of the anhydrate forms: Form A versus Form C, at the temperatures evaluated; for Interconversion result (form): EtOH, 75° C.
Procedure: The choice of solvent affects the kinetics of polymorph conversion and not the thermodynamic relationship between polymorphic forms (Gu, CH., Young, V. Jr., Grant, DJ. J. Pharm. Sci 2001; 90 (11): 1878-1890).
Slurry interconversion experiments in ethanol (at 75° C.) and methanol (at room temperature) were still attempted to confirm the thermodynamic relationship between Forms A and C (Table 18).

[5] = DVS moisture sorption/desorption isotherm; type: physicochemical
Procedure: Moisture sorption/desorption data were collected on a VTI SGA-100 Vapor Sorption Analyzer. Samples were not dried prior to analysis. Sorption and desorption data were collected over a range from 5% to 95% RH at 10% RH increments under a dry air purge. The equilibrium criterion used for analysis was less than 0.0100% weight change in 5 minutes with a maximum equilibration time of 3 hours with a 2-minute data logging interval. Data were not corrected for the initial moisture content of the samples.

[6] = Trituration of Form C in aqueous methanol below the critical water activity; type: physicochemical; details: 10:90 water/MeOH, aw 0.29, RT, 5 d
Procedure: Although the dihydrate of L-Ergothioneine can form in the presence of water, aqueous methanol mixtures were utilized to enhance solubility. To avoid the dihydrate, the aqueous mixtures were prepared below the critical water activity of its formation. Form C was triturated in the aqueous mixtures and monitored for conversion to Form A by XRPD after 5 days (Table 19).

[7] = Physical stability assessment at controlled relative humidity, form by XRPD; type: physicochemical; details: RT, 22 days
Excerpt: Consistent with the DVS result, the critical water activity between the anhydrate and the dihydrate was tentatively determined to fall between 0.76 and 0.85 aw, above which hydration to Form B Dihydrate will occur. This is also consistent with the physical stability assessment at 33, 75, and 95% RH for 22 days; Form A Anhydrate remained Form A below the critical water activity, while hydration to Form B Dihydrate occurred above (Table 16).
(§1) The effect of relative humidity (RH) and water activity (aw) on the hydration state of L-Ergothioneine was investigated through both static exposure to different relative humidity (Table 17 and Table 18) and competitive water activity trituration experiments at room temperature (Table 20). The resulting solids were characterized by XRPD. These experiments were used to establish the relative humidity ranges for form stability of the thermodynamically stable anhydrate Form A and Form B Dihydrate. The critical water activity between the anhydrate and the dihydrate falls between 0.76 and 0.85 aw. This range is consistent with the DVS isotherms for both Forms A and C Anhydrate.

physchem = type: physicochemical; details: 60 °C, organic solvent or mixture
Procedure: The approximate solubility of the L-Ergothioneine Form A/B mixture in various solvents was determined (Table 2).

[8] = Competitive water activity trituration experiments at room temperature; type: physicochemical
Excerpt: Water activity is related to relative humidity in that RH %=aw×100. Therefore, it is possible to directly relate the stability of an anhydrous/hydrate system in slurry experiments to solid state stability.
as §1

Question: Which Deliquescence [1] does the source give for L-Ergothioneine calcium chloride here?
Answer: appeared to deliquesce

Question: For C[N+](C)(C)C(Cc1cnc(S)[nH]1)C(=O)[O-] [L-Ergothioneine phosphoric acid], which “Solubility in polar protic solvents” value [2] is on record?
Answer: low solubility

Question: What about the “Hygroscopicity suggested by TGA weight loss” value [3] of the same compound?
Answer: hygroscopic

Question: With C[N+](C)(C)C(Cc1cnc(S)[nH]1)C(=O)[O-] [L-Ergothioneine Form C Anhydrate, L-Ergothioneine] as the compound, how does the “Relative thermodynamic stability of the anhydrate forms” value ([4]; listed as Form C Anhydrate) read?
Answer: thermodynamically metastable relative to Form A

Question: What about the “Weight loss upon equilibration” value ([5]; at 5% RH) of the same compound?
Answer: 0.3 wt %

Question: And the Water gain equivalent ([5]; at 95% RH)?
Answer: more than 1.5 mol/mol

Question: What about the “Weight gain during sorption cycle” value ([5]; at 95% RH, equilibrium not achieved) of the same compound?
Answer: more than 10.9 wt %

Question: And the “Hygroscopicity (DVS)” value ([5]; from 5 to 85% RH, listed as Form C)?
Answer: limited hygroscopicity

Question: What about the “Complete desorption, equivalent loss of water” value ([5]; once reaching 5% RH) of the same compound?
Answer: 1 mol/mol

Question: And the “Recovered material after DVS by XRPD” value ([5]; post-DVS)?
Answer: mixture of Form C Anhydrate, Form B Dihydrate, and another form

Question: And the “Weight loss on desorption cycle” value ([5]; until reaching 75% RH)?
Answer: 5.5 wt %

Question: And the “Weight gain during sorption cycle” value ([5]; up through 85% RH)?
Answer: approximately 0.9 wt %

Question: What about the “Trituration result (form by XRPD)” value [6] of the same compound?
Answer: A + C (minor)

Question: And the “Physical stability, resulting form” value ([7]; 75% RH)?
Answer: Form C

Question: And the “Physical stability, resulting form” value ([7]; 95% RH)?
Answer: Form B

Question: With C[N+](C)(C)C(Cc1cnc(S)[nH]1)C(=O)[O-] [L-Ergothioneine Form B Dihydrate, L-Ergothioneine] as the compound, how does the “Physical stability, resulting form” value ([7]; 33% RH) read?
Answer: partially dehydrate to a small quantity of both Forms A and C Anhydrates

Question: What about the “Physical stability, resulting form” value ([7]; 75% RH, listed as Form B Dihydrate) of the same compound?
Answer: sustained

Question: What about the “Physical stability, resulting form” value ([7]; 95% RH, listed as Form B Dihydrate) of the same compound?
Answer: sustained

Question: Which “Hygroscopicity suggested by TGA weight loss” value [3] does the source give for C[N+](C)(C)C(Cc1c[nH]c(=S)[nH]1)C(=O)O.O=S(=O)([O-])O [L-Ergothioneine Sulfate Form A, L-Ergothioneine sulfate] here?
Answer: hygroscopic

Question: Which solubility (physchem) does the source give for C[N+](C)(C)C(Cc1cnc(S)[nH]1)C(=O)[O-] [L-Ergothioneine mixture, L-Ergothioneine] here?
Answer: < 2000 µg/mL

Question: Which “Interconversion result (form)” value ([4]; 14 days) does the source give for C[N+](C)(C)C(Cc1cnc(S)[nH]1)C(=O)[O-] [Forms A and C, L-Ergothioneine] here?
Answer: A + C

Question: What about the “Interconversion result (form)” value ([4]; 28 days) of the same compound?
Answer: A + C (minor)

Question: And the “Water activity experiment result (form)” value ([8]; 15:85 water/MeOH, aw 0.39, RT, 8 d)?
Answer: B + A + C + anotherform

Question: And the “Water activity experiment result (form)” value ([8]; 20:80 water/MeOH, aw 0.47, RT, 8 d)?
Answer: B + A + C

Question: What about the “Water activity experiment result (form)” value ([8]; 20:80 water/MeOH, aw 0.47, RT, 14 d) of the same compound?
Answer: A + B

Question: What about the “Water activity experiment result (form)” value ([8]; 70:30 water/MeOH, aw 0.86, RT, 13 d) of the same compound?
Answer: B (PO)

Question: And the “Water activity experiment result (form)” value ([8]; solvent, aw and method cells empty, lines below 50:50 water/MeOH, aw 0.76)?
Answer: A + B + anotherform

Question: Which results are given for C[N+](C)(C)C(Cc1cnc(S)[nH]1)C(=O)[O-] [L-Ergothioneine Form A Anhydrate, L-Ergothioneine, reference compound]?
Answer: Relative thermodynamic stability of the anhydrate forms ([4]; listed as Form A): more thermodynamically stable form; Hygroscopicity (DVS) ([5]; above 85% RH): significant hygroscopicity; Hygroscopicity (DVS) ([5]; from 5 to 85% RH, listed as Form A): low hygroscopicity
